This is an account of results in patent US5994361A, “Substituted purinyl derivatives with immunomodulating activity” (priority 1995, dated 1999).

For one data set, the system named is spleen cells. Put plainly: Immunophenotyping on spleen cells, combination with 5 Fluorouracil. It counts as in vivo, C57/BLJ6 mice. Particulars: 5 FU 80 mg/kg alone, N = 4. Here is the method: (§1) After in vivo drugs analysis, the drugs were evaluated on whole blood for drug stability and toxicity. Furthermore, in vivo/ex vivo analysis was performed on normal and cyclophosphamide immunosuppressed animals plus 5Fu-treated animals. Cell immunophenotyping was performed on mouse-treatedblood and spleen. The following cell surface antigens were analyzed:
(§2) CD3 (all T cells), CD4 (T helper/inducer, binds class II-restricted T cells), CD8a (cytotoxic T cells, CTL adhesion), CD11a (T, B, NK, some stem cells, CTL adhesion anti LFA-1α), MAC-1 (monocyte/macrophage), NK (natural killer cells), Ly5 (B cells), CD45 (all leukocytes, protein tyrosine phosphates), and TCR (T cell receptor).
(§3) C57/BLJ6 mice (6-8 weeks old) were injected daily for 4 consecutive days, sacrificed at day 5 and immunophenotyping was performed on blood and spleen cells.
(§4) The cells were washed twice in PBS, resuspended in 1 ml of RPMI 2% FBS, and incubated for 45 min. on ice with monoclonal antibody. The cells were washed once, fixed with 1% paraformaldehyde, then analyzed using XL Coulter® counter.

Data set [1] has as its system MC38 colon adenocarcinoma. Kind of data set: Compound #1 with 5FU against colon adenocarcinoma (Example 95). It counts as in vivo, C57/BL mice. Here is the method:
C57/BL mice 6-8 weeks old (n=7-9/gr) were injected with 3×10^5 MC38 colon adenocarcinoma cells s.c. on day 0. On day 7, tumor-bearing mice were randomized and injected with 5FU at 20 mg/kg either alone or in combination with levamisole at 20 mg/kg i.p. or with compound #1 at 25 and 50 mg/kg i.p. over a four week period. During this period, animals were treated for 5 consecutive days, untreated for 2 days, and treated again for 5 consecutive days per week for 4 weeks.

Data set [2] deals with blood cells. Put plainly: Immunophenotyping on blood cells, combination with 5 Fluorouracil. It counts as in vivo, C57/BLJ6 mice. Particulars: 5 FU 80 mg/kg alone, N = 4. Here is the method: as §1, §2, §3, §4
The test system of a further data set is virus. Particulars: cited from earlier work.
The conditions of data set [3]: cited from earlier work.
The subject of the next data set is immune system. Particulars: prior art; cited from earlier work.
In data set [4] the test system is blood cells. Put plainly: Immunophenotyping on blood cells, combination with cyclophosphamide. It counts as in vivo, C57/BLJ6 mice. Particulars: cyclophosphamide 100 mg/kg alone, N = 4. Here is the method:
as §1, §2, §3, §4

Data set [5] has as its system DA-3 mammary carcinoma. Put plainly: Compound #1 with Cytoxan 28 mg/kg against DA-3 mammary carcinoma, tumor sizes (Example 94). It counts as in vivo, Balb/c mice. Also noted: key: tumor volume = length × width²/2. How it is done: (§5) Parameters of effect were measured by inhibition of tumor outgrowth and growth rate [tumors measured along the longest axis (length) and the perpendicular shortest axis (width) and the tumor volumes (T.V.±S.E.) was calculated by the formula T.V.=length (cm)×(width cm)^2 /2.] assessment of body weight loss.
(§6) In another experiment, the CTX treatment was prolonged. Balb/c mice were injected s.c. with 5×10^5 DA-3 tumor cells at day 0. At day 4 when established tumors appeared, tumor-bearing animals were randomized (n=11/gr.) and injected with CTX (at 28 mg/kg) i.v. bolus injections at days 4, 11, and 18. […]

The nature of data set [6]: Body weight, compound #1 with Cytoxan 28 mg/kg (Example 94). Type of data set: in vivo, Balb/c mice. The arrangement: body weight: unit not given here. How it is done:
as §6

Data set [7] relates to DA-3 mammary carcinoma. Kind of data set: Tumor outgrowth of breast carcinoma, with cyclophosphamide (Example 92). Type of data set: in vivo, Balb/C mice. Particulars: CY 100 mg/kg. Here is the method:
Balb/C Mice (n-5/Gr) were used along with DA-3 mammary carcinoma cell line. The mice were treated from -2 to 13 days. Animals were monitored for tumor takes/tumor size and body weights for three weeks from Day 0 until Day 21. D0 was the day of tumor cell inoculation and D21 was the day of experiment termination.
as §5
The statistical significance of difference between tumor takes and tumor sizes of control-untreated and drug-treated groups is estimated using the Chi-square and Student's t tests respectively with significance determined at n<0.05.
The mice were divided into the following 5 groups:
Gr.1--Normal Saline (0.2 ml/mouse i.p. starting at D2)
Gr.2--CY (100 mg/kg single bolus i.v. at D0)
Gr.3--Compound #1 (25 mg/kg i.p. starting at D2)
Gr.4--Compound #1 (50 mg/kg i.p. starting at D2)
Gr.5--CY (100 mg/kg i.v. at D0+compound #1 50 mg/kg i.p. starting at D2)

Where [8] appears, read: single agent (CTX 28 mg/kg days 4, 11, 18, or BCH-1393 50 mg/kg days 3-28), day 4.
The mark [9] stands for this setting: single agent (CTX 28 mg/kg or BCH-1393 50 mg/kg), day 7.
Setting [10] is: single agent (CTX 28 mg/kg or BCH-1393 50 mg/kg), day 9.
The mark [11] stands for this setting: single agent (CTX 28 mg/kg or BCH-1393 50 mg/kg), day 11.
[12] abbreviates: single agent (CTX 28 mg/kg or BCH-1393 50 mg/kg), day 14.
[13] abbreviates: single agent (CTX 28 mg/kg or BCH-1393 50 mg/kg), day 16.
[14] abbreviates: single agent (CTX 28 mg/kg or BCH-1393 50 mg/kg), day 18.
Where [15] appears, read: single agent (CTX 28 mg/kg or BCH-1393 50 mg/kg), day 21.
Where [16] appears, read: single agent (CTX 28 mg/kg or BCH-1393 50 mg/kg), day 23.
Where [17] appears, read: single agent (CTX 28 mg/kg or BCH-1393 50 mg/kg), day 25.
The mark [18] stands for this setting: single agent (CTX 28 mg/kg or BCH-1393 50 mg/kg), day 28.
Setting [19] is: single agent (CTX 28 mg/kg or BCH-1393 50 mg/kg), day 30.

On to `O=c1[nH]cc(F)c(=O)[nH]1` [5 FU, 5-fluorouracil, reference compound], for which, in the data set with spleen cells, the “CD4+ CD45- (mean)” value came to 10.0 and the “NK+ (mean)” value was found to be 4.22. The anti-tumor response entry in data set [1] (5FU 20 mg/kg alone) is listed as “moderate anti-tumor response”. Moreover, in the data set with blood cells [2], the “CD8+ CD45+ (mean)” value is on record as 6.66 and the “NK+ (mean)” value is given as 3.24.
For the molecule `Nc1nc2c(ccn2[C@@H]2O[C@H](CO)[C@@H](O)[C@H]2O)c(=O)[nH]1` [7-deazaguanosine], the “immunostimulatory and antiviral activity” value with virus (after oral administration, preliminary) is “significant immunostimulatory and antiviral activity after oral administration”.
Consider `Nc1nc2c(sc(=O)n2[C@@H]2O[C@H](CO)[C@@H](O)[C@H]2O)c(=O)[nH]1` [7-thia-8-oxoguanosine], for which, in the data set on virus (humans), the antiviral results is “few encouraging results”. In addition, the oral bioavailability result in data set [3] is given as “lack of oral bioavailability”. Further, the immunomodulating activity entry in the data set with immune system was “activate NK and B cells in the immune system, and to induce interferon”.
As to `c1ccc([C@H]2CN3CCSC3=N2)cc1` [Levamisole, levamisole], the anti-tumor response entry in data set [1] (5FU 20 mg/kg plus Levamisole 20 mg/kg) is given as “moderate anti-tumor response”. In data set [3] (adjuvant levamisole therapy for malignant melanoma), the adverse effect result is listed as “induces serious thrombocytopenia”.
In the case of `O=P1(N(CCCl)CCCl)NCCCO1` (stereo not shown) [cyclophosphamide, reference compound], in the data set with blood cells [4], the “CP8+ CD45+ (mean)” value is recorded as 15.05. Moreover, the tumor size in the data set on DA-3 mammary carcinoma [5] (setting [8]) came to 4.2; with DA-3 mammary carcinoma [5] (setting [9]), 10.5; in the data set on DA-3 mammary carcinoma [5] (setting [10]), 18.6; with DA-3 mammary carcinoma [5] (setting [11]), 30.7; in the data set on DA-3 mammary carcinoma [5] (setting [12]), 50.6; with DA-3 mammary carcinoma [5] (setting [13]), 54.5. Further, the tumor size with DA-3 mammary carcinoma [5] (setting [14]) was 63.4; with DA-3 mammary carcinoma [5] (setting [15]), 88.5; with DA-3 mammary carcinoma [5] (setting [16]) it was 93.4; in the data set with DA-3 mammary carcinoma [5] (setting [17]) it was 106.3; in the data set on DA-3 mammary carcinoma [5] (setting [18]), 130.9; in the data set with DA-3 mammary carcinoma [5] (setting [19]), 151.6. Besides, the body weight was determined as 19.2 in [6] (setting [8]); 19.8 in data set [6] (setting [9]); 19.8 in data set [6] (setting [10]); 19.9 in data set [6] (setting [11]); 19.2 in data set [6] (setting [12]); 19.7 in data set [6] (setting [13]). Moreover, the body weight was 19.6 in [6] (setting [14]); 19.8 in data set [6] (setting [15]); 19.7 in data set [6] (setting [16]); 20.1 in data set [6] (setting [17]); 20.3 in data set [6] (setting [18]); 20.4 in [6] (setting [19]). In addition, the Tumor takes in the data set with DA-3 mammary carcinoma [7] (day 4), in the data set with DA-3 mammary carcinoma [7] (day 6), in the data set with DA-3 mammary carcinoma [7] (day 8) and in the data set with DA-3 mammary carcinoma [7] (day 10) was 5/5 each time.
